Experimental data as given in patent US5399487A, “6-peptidylamino-1-naphthalenesulfonamides useful as fluorogenic proteolytic enzyme substrates” (Haematologic Technologies, Inc., priority 1993, dated 1995).

How the values were obtained:
Type in all cases: biochemical
[1] = molecular target: T1, thrombin (IIa) (Homo sapiens, UniProt P00734); test: Fluorogenic enzyme assay (Example 5); set-up: key to Kinetic constants, IIa (symbol b): slow substrate hydrolysis, no kinetic constants calculated
T1 construct: 0.5 nM human thrombin (IIa)
Description: (§1) Enzyme assays (except factor VIIa assays, see below) were conducted in 20 mM Tris, 150 mM NaCl, pH 7.4 (TBS) at room temperature (22° C.). The final volume for all reaction mixtures was 2.0 ml. Fluorogenic substrates were dissolved in DMSO to a stock concentration of 10 mM. The 10 mM stock solution was diluted in TBS to the final working concentration prior to all assays. Enzyme was added to mixtures containing buffer components and substrate and the initial rate of substrate hydrolysis was measured as the change in fluorescent intensity over time, corresponding to the generation of the particular 6-amino-1-naphthalenesulfonamide fluorophore from the provided substrate. Quantitation of substrate hydrolysis was accomplished by establishing a standard curve from the appropriate fluorescent moiety. Fluorescence was monitored (continuously or discontinuously) using a Perkin Elmer fluorescence spectrophotometer, model MPF-44A, equipped with a standard chart recorder. The fluorophore was detected using monochrometers set at an excitation wavelength of 352 nm and an emission wavelength of 470 nm. Light scattering artifacts were minimized using a 399 nm cut off filter in the emission light beam.
(§2) The kinetic constants of substrate hydrolysis were determined using the non-linear least squares regression analysis program ENZFITTER (Cambridge, UK). This program was used to iteratively fit initial rates of substrate hydrolysis to the Michaelis-Menten equation and the kinetic constants of substrate hydrolysis (Km) and (kcat) were calculated.

[2] = molecular target: factor Xa (Homo sapiens, UniProt P00742); test: Fluorogenic enzyme assay (Example 5); set-up: key to Kinetic constants, Xa (symbol b): slow substrate hydrolysis, no kinetic constants calculated; conditions: for TIME TO 10% HYDROLYSIS (HOURS), Xa / hydrolysis, Xa (symbol d): substrate 1 μM; for hydrolysis, Xa (symbol d): at 100 hours
Sequence of factor Xa (P00742 235-488 limits assumed): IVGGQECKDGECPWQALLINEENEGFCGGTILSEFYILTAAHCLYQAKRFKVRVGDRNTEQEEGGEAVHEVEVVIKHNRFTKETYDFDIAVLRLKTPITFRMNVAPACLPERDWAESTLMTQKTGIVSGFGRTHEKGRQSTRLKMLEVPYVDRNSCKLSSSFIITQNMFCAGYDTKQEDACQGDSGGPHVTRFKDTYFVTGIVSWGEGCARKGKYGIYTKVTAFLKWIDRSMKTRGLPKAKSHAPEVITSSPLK
Sequence of factor Xa (P00742 41-179 limits assumed): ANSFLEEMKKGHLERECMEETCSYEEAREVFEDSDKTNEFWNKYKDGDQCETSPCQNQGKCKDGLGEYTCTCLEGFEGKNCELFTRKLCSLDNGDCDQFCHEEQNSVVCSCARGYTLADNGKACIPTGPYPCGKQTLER
Description: as §1, §2

[3] = molecular target: activated protein C (APC) (Homo sapiens, UniProt P04070); test: Fluorogenic enzyme assay (Example 5); set-up: key to Kinetic constants, APC (symbol b): slow substrate hydrolysis, no kinetic constants calculated; conditions: for TIME TO 10% HYDROLYSIS (HOURS), APC: substrate 1 μM
Sequence of activated protein C (APC) (P04070 212-461 limits assumed): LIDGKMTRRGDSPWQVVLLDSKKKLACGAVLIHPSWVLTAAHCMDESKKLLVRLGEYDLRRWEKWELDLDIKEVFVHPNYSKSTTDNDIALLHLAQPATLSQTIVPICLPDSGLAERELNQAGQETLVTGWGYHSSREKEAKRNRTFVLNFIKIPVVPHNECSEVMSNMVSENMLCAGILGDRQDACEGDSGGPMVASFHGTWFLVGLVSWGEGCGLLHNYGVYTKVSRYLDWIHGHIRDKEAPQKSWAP
Sequence of activated protein C (APC) (P04070 43-197 limits assumed): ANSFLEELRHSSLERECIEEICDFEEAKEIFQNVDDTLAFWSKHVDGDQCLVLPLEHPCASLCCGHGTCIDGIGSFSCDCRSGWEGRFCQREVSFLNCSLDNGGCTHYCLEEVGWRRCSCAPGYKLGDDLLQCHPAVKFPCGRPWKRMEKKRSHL
Description: as §1, §2

[4] = molecular target: plasmin (Plm) (Homo sapiens, UniProt P00747); test: Fluorogenic enzyme assay (Example 5); conditions: substrate 1 μM
Sequence of plasmin (Plm) (P00747 581-810 limits assumed, species assumed): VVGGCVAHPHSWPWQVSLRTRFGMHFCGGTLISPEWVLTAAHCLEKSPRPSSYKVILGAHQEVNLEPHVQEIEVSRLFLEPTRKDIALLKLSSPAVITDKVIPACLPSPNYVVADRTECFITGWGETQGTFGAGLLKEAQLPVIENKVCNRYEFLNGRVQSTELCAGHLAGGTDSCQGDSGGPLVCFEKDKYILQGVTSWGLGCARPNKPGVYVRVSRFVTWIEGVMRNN
Sequence of plasmin (Plm) (P00747 97-580 limits assumed, species assumed): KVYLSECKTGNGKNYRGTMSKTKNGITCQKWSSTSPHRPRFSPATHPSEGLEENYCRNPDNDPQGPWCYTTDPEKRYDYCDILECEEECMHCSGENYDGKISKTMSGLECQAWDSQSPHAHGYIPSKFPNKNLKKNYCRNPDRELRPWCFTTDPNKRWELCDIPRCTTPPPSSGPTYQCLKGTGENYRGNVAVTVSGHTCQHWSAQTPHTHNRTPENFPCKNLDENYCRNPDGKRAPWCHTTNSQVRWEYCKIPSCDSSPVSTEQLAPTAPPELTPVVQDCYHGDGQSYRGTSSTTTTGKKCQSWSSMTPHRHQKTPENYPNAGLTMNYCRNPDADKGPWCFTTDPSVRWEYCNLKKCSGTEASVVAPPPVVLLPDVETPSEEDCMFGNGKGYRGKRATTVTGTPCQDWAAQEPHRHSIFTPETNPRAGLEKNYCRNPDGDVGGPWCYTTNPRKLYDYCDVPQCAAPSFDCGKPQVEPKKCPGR
Description: as §1, §2

[5] = molecular target: tissue plasminogen activator (t-PA) (Homo sapiens, UniProt P00750); test: Fluorogenic enzyme assay (Example 5); conditions: 100 nM enzyme, substrate 1 μM; for hydrolysis, t-PA (symbol d): at 100 hours
Sequence of tissue plasminogen activator (t-PA) (P00750 36-562, species assumed): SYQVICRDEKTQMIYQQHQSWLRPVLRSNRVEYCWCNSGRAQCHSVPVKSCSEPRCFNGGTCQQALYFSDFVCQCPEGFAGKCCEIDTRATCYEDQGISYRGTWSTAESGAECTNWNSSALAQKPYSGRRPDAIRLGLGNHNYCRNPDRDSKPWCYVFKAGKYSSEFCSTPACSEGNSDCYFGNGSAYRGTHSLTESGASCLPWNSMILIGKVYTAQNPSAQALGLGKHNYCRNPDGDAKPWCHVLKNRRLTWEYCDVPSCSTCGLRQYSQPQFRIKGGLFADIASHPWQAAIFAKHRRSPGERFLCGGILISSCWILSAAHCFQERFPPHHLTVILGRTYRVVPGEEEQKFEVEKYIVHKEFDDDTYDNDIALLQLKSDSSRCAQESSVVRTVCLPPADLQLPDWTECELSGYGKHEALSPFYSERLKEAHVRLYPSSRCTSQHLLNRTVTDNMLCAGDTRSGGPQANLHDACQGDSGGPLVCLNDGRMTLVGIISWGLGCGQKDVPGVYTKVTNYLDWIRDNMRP
Description: as §1, §2

[6] = molecular target: urokinase (u-PA) (Homo sapiens, UniProt P00749); test: Fluorogenic enzyme assay (Example 5); conditions: 100 nM enzyme, substrate 1 μM; for hydrolysis, u-PA (symbol d): at 100 hours
Description: as §1, §2

[7] = molecular target: T2, factor VIIa (Homo sapiens, UniProt P08709); test: Fluorogenic enzyme assay, relative hydrolysis rates (Table 8); conditions: at 100 hours; 10 nM enzyme, substrate 1 μM
T2 construct: directly measure the enzymatic activity of factor VIIa in the presence and absence of tissue factor and phospholipid
T2 sequence (P08709 213-466 limits assumed): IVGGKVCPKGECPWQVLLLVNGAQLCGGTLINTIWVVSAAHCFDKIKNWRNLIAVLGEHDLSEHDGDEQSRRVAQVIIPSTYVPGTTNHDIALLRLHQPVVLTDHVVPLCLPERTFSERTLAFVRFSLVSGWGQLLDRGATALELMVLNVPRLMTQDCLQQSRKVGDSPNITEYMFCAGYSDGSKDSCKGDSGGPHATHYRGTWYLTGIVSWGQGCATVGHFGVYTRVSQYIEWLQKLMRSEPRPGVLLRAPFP
T2 sequence (P08709 61-212 limits assumed): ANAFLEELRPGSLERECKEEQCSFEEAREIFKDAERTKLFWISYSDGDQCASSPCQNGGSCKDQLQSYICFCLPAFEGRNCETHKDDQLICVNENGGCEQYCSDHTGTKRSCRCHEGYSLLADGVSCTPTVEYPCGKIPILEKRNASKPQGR
Description: as §1
Factor VII assays were conducted in 20 mM HEPES, 150 mM NaCl, 5 mM CaCl2, pH 7.4 (HBS) at 37° C. The final volume for all reactions was 1.6 ml. 6-(Mes-D-Leu-Gly-Arg)amino-1-(N,N-diethyl)naphthalenesulfonamide was dissolved in DMSO to a stock concentration of 10 mM. This 10 mM stock solution of was diluted in HBS to final working concentration prior to all assays. For reactions involving tissue factor (TF) and phospholipid vesicles, recombinant human tissue factor was solubilized in either 0.04% n-dodecyl octaethylene glycol (C12 E8) or 0.8% octyl glucoside. The TF/n-dodecyl octaethylene glycol was then relipidated into PCPS or PC vesicles by a 30 minute incubation step as described by Lawson & Mann, J. Biol. Chem. 266: 11317-11327 (1991). TF/octyl glucoside was relipidated into PC or PCPS vesicles by a thirty minute incubation step followed by exhaustive dialysis. The final concentration of tissue factor used in the studies described here ranged from 2 to 50 nM depending on the nature of the experiment.
Fifteen minutes prior to the start of all reactions factor VIIa was added to the reaction system. This incubation period was followed by the addition of substrate (1 μM to 400 μM) to the mixture to start the reaction. In experiments designed to determine kinetic constants of substrate hydrolysis, 50 nM rVIIa was used when no tissue factor was present in the reaction system, while 0.5 nM rVIIa was used when tissue factor was present in the reaction system. The rate of substrate hydrolysis was measured by change in fluorescence over time, which corresponded with the generation of the 6-amino-1-(N,N-diethyl)naphthalenesulfonamide from the provided substrate. The kinetic constants of 6-(Mes-D-Leu-Gly-Arg)amino-1-(N,N-diethyl)naphthalenesulfonamide hydrolysis as a function of factor VIIa/tissue factor complex assembly are shown in Table 10.

[8] = molecular target: factor IXa (Homo sapiens, UniProt P00740); test: Fluorogenic enzyme assay (Example 5); set-up: key to Kinetic constants, IXa (symbol b): slow substrate hydrolysis, no kinetic constants calculated; conditions: for hydrolysis, IXa (symbol d): at 100 hours
Sequence of factor IXa (P00740 227-461 limits assumed): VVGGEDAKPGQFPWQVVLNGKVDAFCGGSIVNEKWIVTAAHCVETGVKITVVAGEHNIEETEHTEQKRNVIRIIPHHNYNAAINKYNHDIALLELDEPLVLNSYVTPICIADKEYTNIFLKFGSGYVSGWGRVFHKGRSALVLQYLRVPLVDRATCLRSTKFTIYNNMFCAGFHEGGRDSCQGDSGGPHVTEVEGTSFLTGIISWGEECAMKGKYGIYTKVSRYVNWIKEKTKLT
Sequence of factor IXa (P00740 47-191 limits assumed): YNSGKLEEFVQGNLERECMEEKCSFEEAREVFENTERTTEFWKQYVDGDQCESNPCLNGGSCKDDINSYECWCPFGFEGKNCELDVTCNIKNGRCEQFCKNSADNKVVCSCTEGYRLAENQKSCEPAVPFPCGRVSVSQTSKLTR
Description: as §1, §2

Row | TIME TO 10% HYDROLYSIS (HOURS), IIa ([1]; 10 nM enzyme, substrate 1 μM) [h] | TIME TO 10% HYDROLYSIS (HOURS), APC ([3]; 100 nM enzyme (footnote b)) [h] | TIME TO 10% HYDROLYSIS (HOURS), Plm ([4]; 100 nM enzyme (footnote b)) [h] | Km ([1]; Table 9) [µM] | kcat, IIa ([1]; Table 9) [s⁻¹] | TIME TO 10% HYDROLYSIS (HOURS), Xa ([2]; 10 nM enzyme) [h] | Km ([2]; Table 9) [µM] | kcat /Km, Xa ([2]; Table 9) [M⁻¹ s⁻¹] | kcat, Xa ([2]; Table 9) [s⁻¹] | TIME TO 10% HYDROLYSIS (HOURS), APC ([3]; 10 nM enzyme) [h] | TIME TO 10% HYDROLYSIS (HOURS), Plm ([4]; 10 nM enzyme) [h] | TIME TO 10% HYDROLYSIS (HOURS), u-PA [6] [h] | Kinetic constants, IXa (symbol b) ([8]; Table 9) | Km ([3]; Table 9) [µM] | kcat /Km, APC ([3]; Table 9) [M⁻¹ s⁻¹] | kcat, APC ([3]; Table 9) [s⁻¹] | Structure (SMILES) | hydrolysis, t-PA (symbol d) [5] | hydrolysis, u-PA (symbol d) [6] | hydrolysis, VIIa (symbol d) [7] | hydrolysis, IXa (symbol d) ([8]; 100 nM enzyme, substrate 1 μM) | other results
1 | 18 | 11 | 1.5 |  |  |  |  |  |  |  |  |  |  |  |  |  | CN(C)S(=O)(=O)c1cccc2cc(NC(=O)[C@H](CCCNC(=N)N)NC(=O)[C@H](CCCCNC(=O)OCc3ccccc3)NC(=O)OC(C)(C)C)ccc12 [(N^α -Boc,N^.cndot. -Z)KR-ANSN(CH23)2] | d (hydrolysis at 100 hours was less than 10%.) | d (hydrolysis at 100 hours was less than 10%.) | d (hydrolysis at 100 hours was less than 10%.) | d (hydrolysis at 100 hours was less than 10%.) | TIME TO 10% HYDROLYSIS (HOURS), Xa ([2]; 100 nM enzyme (footnote b)): 24 h
2 | 4 |  |  | 44.4 | 0.04 | 9 | 230 | 260 | 0.06 | 3 | 22 | 5 | b |  |  |  | CCCNS(=O)(=O)c1cccc2cc(NC(=O)[C@H](CCCNC(=N)N)NC(=O)[C@H](Cc3ccccc3)NC(=O)[C@@H]3CCCN3C(=O)OC(C)(C)C)ccc12 [BocPFR-ANSNHC3 H7] |  |  | d (hydrolysis at 100 hours was less than 10%.) | d (hydrolysis at 100 hours was less than 10%.) | kcat /Km, IIa ([1]; Table 9): 900 M⁻¹ s⁻¹; Kinetic constants, APC (symbol b) ([3]; Table 9): b; TIME TO 10% HYDROLYSIS (HOURS), t-PA [5]: 4 h
3 |  |  |  | 7.7 | 11.6 | 0.4 | 400 | 7250 | 2.9 | 0.02 | 0.33 | 1 |  | 160 | 6880 | 1.1 | Br.Br.CC(C)C[C@@H](N)C(=O)N1CCC[C@H]1C(=O)N[C@@H](CCCNC(=N)N)C(=O)Nc1ccc2c(S(=O)(=O)N3CCCCC3)cccc2c1 [D-LPR-ANSN(CH2)5] |  |  | d (hydrolysis at 100 hours was less than 10%.) |  | TIME TO 10% HYDROLYSIS (HOURS), IIa ([1]; 1 nM enzyme (footnote c), substrate 1 μM): 0.01 h; TIME TO 10% HYDROLYSIS (HOURS), t-PA [5]: 1.3 h; TIME TO 10% HYDROLYSIS (HOURS), IXa ([8]; 100 nM enzyme, substrate 1 μM): 4 h; Km ([8]; Table 9): 343 µM; kcat, IXa ([8]; Table 9): 0.4 s⁻¹; kcat/Km, IXa ([8]; Table 9): 1170 M⁻¹ s⁻¹
4 | 93 |  | 2.5 |  |  |  |  |  |  | 0.5 |  | 24 | b | 267 | 11600 | 3.1 | Br.Br.Br.N=C(N)NCCC[C@H](NC(=O)CNC(=O)CN)C(=O)N[C@@H](CCCNC(=N)N)C(=O)Nc1ccc2c(S(=O)(=O)NC3CCCCC3)cccc2c1 [GGRR-ANSNH(cyclo-C6 H11)] | d (hydrolysis at 100 hours was less than 10%.) |  | d (hydrolysis at 100 hours was less than 10%.) | d (hydrolysis at 100 hours was less than 10%.) | Kinetic constants, IIa (symbol b) ([1]; Table 9): b; TIME TO 10% HYDROLYSIS (HOURS), Xa ([2]; 100 nM enzyme (footnote b)): 46 h; Kinetic constants, Xa (symbol b) ([2]; Table 9): b
5 |  | 8 | 8 |  |  |  |  |  |  |  |  |  |  |  |  |  | Br.Br.Br.CN(C)S(=O)(=O)c1cccc2cc(NC(=O)[C@H](CCCNC(=N)N)NC(=O)[C@@H](N)CCCCN)ccc12 [KR-ANSN(CH3)2] | d (hydrolysis at 100 hours was less than 10%.) | d (hydrolysis at 100 hours was less than 10%.) | d (hydrolysis at 100 hours was less than 10%.) | d (hydrolysis at 100 hours was less than 10%.) | hydrolysis, IIa (symbol d) ([1]; at 100 hours, 10 nM enzyme, substrate 1 μM): d (hydrolysis at 100 hours was less than 10%.); hydrolysis, Xa (symbol d) ([2]; 10 nM enzyme): d (hydrolysis at 100 hours was less than 10%.)
6 | 26 | 5.5 | 1.5 |  |  |  |  |  |  |  |  |  |  |  |  |  | CN(C)S(=O)(=O)c1cccc2cc(NC(=O)[C@H](CCCNC(=N)N)NC(=O)[C@@H](N)CCCCNC(=O)OCc3ccccc3)ccc12.Cl.Cl [N^ω -AZ)KJR-ANSN(CH3)2] | d (hydrolysis at 100 hours was less than 10%.) | d (hydrolysis at 100 hours was less than 10%.) | d (hydrolysis at 100 hours was less than 10%.) | d (hydrolysis at 100 hours was less than 10%.) | hydrolysis, Xa (symbol d) ([2]; 10 nM enzyme): d (hydrolysis at 100 hours was less than 10%.)
7 | 5 |  |  | 600 | 0.36 | 1.25 | 667 | 2000 | 1.33 | 0.25 | 13 | 6 | b | 240 | 19600 | 4.7 | CCCNS(=O)(=O)c1cccc2cc(NC(=O)[C@H](CCCNC(=N)N)NC(=O)[C@H](Cc3ccccc3)NC(=O)[C@@H]3CCCN3)ccc12.Cl.Cl [PFR-ANSNHC3 H7] | d (hydrolysis at 100 hours was less than 10%.) |  | d (hydrolysis at 100 hours was less than 10%.) | d (hydrolysis at 100 hours was less than 10%.) | kcat /Km, IIa ([1]; Table 9): 600 M⁻¹ s⁻¹
